# Measured values from ChEMBL document CHEMBL5390237, “Discovery of Selective Histone Deacetylase 1 and 2 Inhibitors: Screening of a Focused Library Constructed by Click Chemistry, Kinetic Binding Analysis, and Biological Evaluation” (J Med Chem, 2023).
# Biological target: Histone deacetylase 2 (Homo sapiens, UniProt Q92769)
# Experiment: Inhibition of full-length recombinant human C-terminal GST tagged HDAC2 expressed in Sf9 insect cells using aminoluciferin peptide substrate at 100 nM preincubated for 3 hrs followed by substrate addition and measured after 30 mins by HDAC-Glo I/II chemiluminescence assay
# Conditions: time 3.5 hrs
# Chain of Histone deacetylase 2 (Q92769 whole entry): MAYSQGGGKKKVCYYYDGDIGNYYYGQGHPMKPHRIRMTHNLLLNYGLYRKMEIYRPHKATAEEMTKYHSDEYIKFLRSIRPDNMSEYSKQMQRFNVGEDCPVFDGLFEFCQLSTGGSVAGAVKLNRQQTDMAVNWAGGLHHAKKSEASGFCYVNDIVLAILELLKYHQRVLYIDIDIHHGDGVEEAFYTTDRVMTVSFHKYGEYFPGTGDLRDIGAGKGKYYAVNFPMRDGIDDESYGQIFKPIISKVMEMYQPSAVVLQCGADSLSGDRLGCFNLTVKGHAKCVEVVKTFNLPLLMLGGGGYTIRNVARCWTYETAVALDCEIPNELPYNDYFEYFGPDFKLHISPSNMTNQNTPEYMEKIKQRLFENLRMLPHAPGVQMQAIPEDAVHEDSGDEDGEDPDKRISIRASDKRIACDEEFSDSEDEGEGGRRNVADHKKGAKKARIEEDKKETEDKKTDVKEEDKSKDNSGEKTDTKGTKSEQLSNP
row,Compound,inhibition
1,Nc1ccc(-c2ccsc2)cc1NC(=O)CCc1cn(CCc2c[nH]c3ccccc23)nn1,22%
2,Nc1ccc(-c2cccs2)cc1NC(=O)c1ccc(-c2cn(CCc3cccc(F)c3)nn2)s1,24%
3,Nc1ccc(-c2ccccc2)cc1NC(=O)c1cn(CCC23CC4CC(CC(C4)C2)C3)nn1,0%
4,Nc1ccc(-c2ccccc2)cc1NC(=O)CCc1cn(CCc2ccccc2C(F)(F)F)nn1,0%
5,Nc1ccc(-c2cccs2)cc1NC(=O)c1cn(CCc2ccc([N+](=O)[O-])cc2)nn1,17%
6,Nc1ccc(-c2ccccc2)cc1NC(=O)c1cn(CCC2CCCCC2)nn1,0%
7,Nc1ccc(-c2ccc(F)cc2)cc1NC(=O)CCc1cn(CCc2cccc(C(F)(F)F)c2)nn1,11%
8,Nc1ccc(-c2cccs2)cc1NC(=O)c1ccc(-c2cn(CC3CCCCC3)nn2)s1,0%
9,Nc1ccc(-c2ccsc2)cc1NC(=O)CCc1cn(CC2CCCCC2)nn1,0%
10,Nc1ccc(-c2ccc(F)cc2)cc1NC(=O)c1cn(-c2ccccc2-c2ccccc2)nn1,19%
11,Nc1ccc(-c2cccs2)cc1NC(=O)c1ccc(-c2cn(CCc3cccc(C(F)(F)F)c3)nn2)cc1,3%
12,COc1ccc(-n2cc(CCC(=O)Nc3cc(-c4cccs4)ccc3N)nn2)cc1,14%
13,Nc1ccc(-c2cccs2)cc1NC(=O)c1ccc(-c2cn(/C=C/c3ccccc3)nn2)cc1,0%
14,Nc1ccc(-c2cccs2)cc1NC(=O)c1cn(/C=C/c2ccccc2)nn1,12%
15,Nc1ccc(-c2ccsc2)cc1NC(=O)c1cn(CCc2cccc([N+](=O)[O-])c2)nn1,1%
16,Nc1ccc(-c2ccc(F)cc2)cc1NC(=O)CCc1cn(CCc2ccc(Cl)cc2)nn1,3%
17,Nc1ccc(-c2ccc(F)cc2)cc1NC(=O)c1cn(CCc2ccccc2)nn1,17%
18,Nc1ccc(-c2ccsc2)cc1NC(=O)c1cn(CCc2ccsc2)nn1,0%
19,Cc1ccc(CCn2cc(CCC(=O)Nc3cc(-c4ccsc4)ccc3N)nn2)cc1,24%

row,Compound,inhibition
1,Nc1ccc(-c2ccc(F)cc2)cc1NC(=O)CCc1cn(Cc2cc3ccccc3s2)nn1,3%
2,Nc1ccc(-c2cccs2)cc1NC(=O)c1cn(CCCCCCCC(=O)O)nn1,2%
3,COc1ccccc1CCn1cc(C(=O)Nc2cc(-c3ccsc3)ccc2N)nn1,0%
4,Nc1ccc(-c2cccs2)cc1NC(=O)c1ccc(-c2cn(CCN3CCOCC3)nn2)s1,69%
5,Nc1ccc(-c2ccccc2)cc1NC(=O)c1cn(CCCCCC(=O)O)nn1,0%
6,Nc1ccc(-c2ccccc2)cc1NC(=O)c1cn(CS(=O)(=O)c2ccccc2)nn1,0%
7,Cc1ccc(CCn2cc(C(=O)Nc3cc(-c4ccccc4)ccc3N)nn2)cc1,2%
8,Nc1ccc(-c2cccs2)cc1NC(=O)c1ccc(-c2cn(CCC34CC5CC(CC(C5)C3)C4)nn2)cc1,5%
9,Nc1ccc(-c2cccnc2)cc1NC(=O)CCc1cn(CCc2ccc(C(=O)O)cc2)nn1,9%
10,Nc1ccc(-c2cccs2)cc1NC(=O)c1ccc(-c2cn(Cc3cc4ccccc4s3)nn2)s1,0%
11,Nc1ccc(-c2cccs2)cc1NC(=O)CCc1cn(Cc2ccc(Oc3ccccc3)cc2)nn1,6%
12,Cc1csc(CCn2cc(CCC(=O)Nc3cc(-c4ccccc4)ccc3N)nn2)n1,29%
13,Nc1ccc(-c2ccc(F)cc2)cc1NC(=O)c1cn(Cc2ccc(-c3ccccc3)cc2)nn1,0%
14,Cc1ccc(CCn2cc(C(=O)Nc3cc(-c4cccs4)ccc3N)nn2)cc1,16%
15,Nc1ccc(-c2cccnc2)cc1NC(=O)CCc1cn(-c2cccc3ccccc23)nn1,0%
16,Nc1ccc(-c2ccc(F)cc2)cc1NC(=O)CCc1cn(-c2ccccc2-c2ccccc2)nn1,8%
17,Nc1ccc(-c2ccc(F)cc2)cc1NC(=O)c1cn(-c2ccc([N+](=O)[O-])cc2)nn1,8%
18,Cc1ccccc1CCn1cc(CCC(=O)Nc2cc(-c3ccsc3)ccc2N)nn1,14%
19,Nc1ccc(-c2ccsc2)cc1NC(=O)c1cn(CCc2ccc(C(=O)O)cc2)nn1,18%
